Some test systems named below: HCT-15; COLO 205; SK-MEL-5; TK-10; OVCAR-5; LOX IMVI; UACC-257; A498; EKVX; IGROV-1; CCRF-CEM; KM-20L2; RXF 393; OVCAR-8; NCI-H522; 786-0; HOP-92; OVCAR-3; UACC-62; BT-549.
Holding throughout (assay): inhibition of tumour cell growth, NCI panel, 48 h

This note sets out measurements from ChEMBL document CHEMBL1201862, “PubChem BioAssay data set” (2004).

Each structure is given as a SMILES string.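 Briefly, cells in 96-well plates were exposed to five compound concentrations for 48 h, and endpoints were estimated by linear interpolation. Abbreviation: GI50, concentration required for 50% inhibition of growth.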 The source made the active and inactive calls. No stated cut-off is given here; in the data, active = GI50 up to about 1.1 µM and inactive = higher. Some results are limits rather than exact numbers.

For `CCOc1ccc(OP2(=O)NC(=O)C=C(C)N2)cc1` (stereo not given), the GI50 is more than 100 µM with HCT-15; > 100 µM (inactive) in the assay with COLO 205; > 100 µM (inactive) with SK-MEL-5; > 100 µM (inactive) with TK-10; > 100 µM (inactive) with OVCAR-5; > 100 µM (inactive) in the assay with LOX IMVI. For the same compound, the GI50 in the assay on UACC-257 was > 100 µM (inactive); with A498, > 100 µM (inactive); in the assay on EKVX it was > 100 µM (inactive); with IGROV-1, > 100 µM (inactive); with CCRF-CEM it was 44.2 µM (inactive); in the assay on KM-20L2 it was > 100 µM (inactive). Moreover, the GI50 in the assay with RXF 393 was > 100 µM (inactive); with OVCAR-8, > 100 µM (inactive); with NCI-H522, > 100 µM (inactive); in the assay with 786-0, 92.9 µM (inactive); in the assay on HOP-92, > 100 µM (inactive); in the assay on OVCAR-3 it was > 100 µM (inactive). For the same compound, the GI50 in the assay with UACC-62 was > 100 µM (inactive).
For `CCc1cccc(C(C)CC)c1NC(=O)CC1C(=O)Nc2ccccc2S1(=O)=O` (stereo not given), the GI50 is 13.3 µM with HCT-15; 20.9 µM (inactive) with COLO 205; 45.9 µM (inactive) with SK-MEL-5; 28.7 µM (inactive) in the assay on TK-10; 70.1 µM (inactive) with OVCAR-5; 6.49 µM (inactive) in the assay on LOX IMVI. In addition, the GI50 in the assay on UACC-257 is 42.3 µM (inactive); in the assay on A498 it was 33.6 µM (inactive); in the assay with EKVX, 7.05 µM (inactive); in the assay on IGROV-1, 20.6 µM (inactive); in the assay on CCRF-CEM it was 5.22 µM (inactive); with KM-20L2 it was 25.2 µM (inactive). Also, the GI50 in the assay with OVCAR-8 is 4.22 µM (inactive); in the assay with 786-0, 15.4 µM (inactive); in the assay with OVCAR-3, 13.6 µM (inactive); with UACC-62, 22.3 µM (inactive).
With `COc1ccc2c([nH]c3cc(O)c(C)cc32)c1C=O`, the GI50 was 14.8 µM in the assay on HCT-15; > 25 µM (inactive) in the assay with COLO 205; > 25 µM (inactive) with SK-MEL-5; > 25 µM (inactive) in the assay with TK-10; > 25 µM (inactive) with OVCAR-5; > 25 µM (inactive) in the assay on LOX IMVI. The GI50 in the assay on IGROV-1 is > 25 µM (inactive); with CCRF-CEM it was 23.6 µM (inactive); in the assay with KM-20L2 it was > 25 µM (inactive); with RXF 393, > 25 µM (inactive); with OVCAR-8, > 25 µM (inactive); in the assay on NCI-H522, 20 µM (inactive). Further, the GI50 in the assay on 786-0, with HOP-92, in the assay with OVCAR-3 and in the assay with UACC-62 was > 25 µM (inactive) each time.
Take `CC1C=CC(C(N)C(=O)O)O1` (stereo not given): the GI50 is more than 100 µM with HCT-15; > 100 µM (inactive) in the assay on COLO 205; > 100 µM (inactive) with SK-MEL-5; > 100 µM (inactive) in the assay on OVCAR-5; > 100 µM (inactive) in the assay with LOX IMVI; > 100 µM (inactive) in the assay on A498. Also, the GI50 in the assay with EKVX, in the assay with IGROV-1, in the assay with CCRF-CEM, in the assay on KM-20L2, in the assay on RXF 393 and in the assay on OVCAR-8 was > 100 µM (inactive) each time. Also, the GI50 with NCI-H522, in the assay on 786-0, in the assay on HOP-92, in the assay on OVCAR-3 and in the assay with UACC-62 was > 100 µM (inactive) in each case.
For `C=C1C(=O)O[C@H]2C[C@@H]1[C@@H](O)[C@H](O)[C@@H](C)CCCC(C)=CCC[C@@]2(C)O`, the GI50 with BT-549 was 10 µM (inactive); in the assay with HCT-15 it was 22.9 µM; in the assay with COLO 205, 7.03 µM (inactive); with SK-MEL-5, 14.3 µM (inactive); with TK-10, 14.9 µM (inactive); in the assay with OVCAR-5, 19.1 µM (inactive). The GI50 is 18.5 µM (inactive) in the assay on LOX IMVI; 15.2 µM (inactive) in the assay with UACC-257; 51.2 µM (inactive) in the assay with A498; 54 µM (inactive) in the assay on EKVX; 24.3 µM (inactive) with IGROV-1; > 100 µM (inactive) with CCRF-CEM. Moreover, the GI50 in the assay with RXF 393 was 22.7 µM (inactive); with OVCAR-8, > 10 µM (inactive); in the assay on NCI-H522 it was 4.24 µM (inactive); with 786-0 it was 15.8 µM (inactive); in the assay on HOP-92, 12.4 µM (inactive); in the assay with OVCAR-3 it was 15.1 µM (inactive). In addition, the GI50 in the assay on UACC-62 was 16.6 µM (inactive).
Consider `C=CCNC(=S)OCCCCCCCCCC`, for which the GI50 with HCT-15 was 15.8 µM; with SK-MEL-5, 16.7 µM (inactive); in the assay with TK-10, 11.7 µM (inactive); in the assay on OVCAR-5, 10.2 µM (inactive); with LOX IMVI, 13.6 µM (inactive); in the assay on UACC-257, 18.8 µM (inactive). Besides, the GI50 in the assay with A498 is 18.5 µM (inactive); in the assay on EKVX, 23.8 µM (inactive); in the assay with IGROV-1 it was 20 µM (inactive); in the assay on CCRF-CEM, 15.7 µM (inactive); with KM-20L2 it was 18.6 µM (inactive); in the assay on RXF 393 it was 15.5 µM (inactive). Also, the GI50 with OVCAR-8 is 17.1 µM (inactive); in the assay with 786-0, 18.2 µM (inactive); in the assay on UACC-62, 16.5 µM (inactive).
In the case of `CC(=O)OCC1OC(N=[N+]=[N-])C(OC(C)=O)C(OC(C)=O)C1OC1OC(COC(C)=O)C(OC(C)=O)C(OC(C)=O)C1OC(C)=O` (stereo not given), the GI50 is more than 100 µM in the assay with HCT-15; > 100 µM (inactive) in the assay on COLO 205; > 100 µM (inactive) in the assay on SK-MEL-5; 81.5 µM (inactive) in the assay with TK-10; > 100 µM (inactive) in the assay on OVCAR-5; > 100 µM (inactive) in the assay on LOX IMVI. The GI50 in the assay with UACC-257, with A498, in the assay on EKVX, with IGROV-1, in the assay on CCRF-CEM and in the assay on KM-20L2 was > 100 µM (inactive) each time. The GI50 in the assay on RXF 393 was 35.7 µM (inactive); in the assay on OVCAR-8 it was > 100 µM (inactive); in the assay on NCI-H522, > 100 µM (inactive); in the assay on 786-0 it was > 100 µM (inactive); with OVCAR-3 it was > 100 µM (inactive); in the assay with UACC-62, > 100 µM (inactive).
Consider `CN1CCc2c1nc(-c1ccccc1)c1c2N(C)CC1`, for which the GI50 in the assay on HCT-15 is 66.4 µM; in the assay with COLO 205, 34.7 µM (inactive); with SK-MEL-5 it was 36.1 µM (inactive); in the assay with TK-10, > 100 µM (inactive); in the assay on OVCAR-5, > 100 µM (inactive); in the assay with LOX IMVI it was 49 µM (inactive). The GI50 with UACC-257 is 93.5 µM (inactive); with A498, 26.1 µM (inactive); in the assay on EKVX, > 100 µM (inactive); in the assay on IGROV-1, > 100 µM (inactive); in the assay on CCRF-CEM, 60.5 µM (inactive); with KM-20L2, 52.8 µM (inactive). Moreover, the GI50 in the assay on RXF 393 was 43.9 µM (inactive); in the assay with OVCAR-8 it was 57.4 µM (inactive); in the assay on 786-0, 66.8 µM (inactive); in the assay on HOP-92, 29.7 µM (inactive); in the assay with OVCAR-3 it was 21.4 µM (inactive); in the assay on UACC-62 it was > 100 µM (inactive).
On to `O=C(CC1C(=O)Nc2ccccc2[S+]1[O-])Nc1cc(Cl)ccc1Cl` (stereo not given), for which the GI50 is more than 100 µM with HCT-15; > 100 µM (inactive) in the assay with SK-MEL-5; > 100 µM (inactive) in the assay with TK-10; > 100 µM (inactive) in the assay on OVCAR-5; > 100 µM (inactive) in the assay with LOX IMVI; > 100 µM (inactive) with UACC-257. Further, the GI50 in the assay on A498, with EKVX, in the assay on IGROV-1, in the assay on CCRF-CEM, with KM-20L2 and in the assay on RXF 393 was > 100 µM (inactive) in each case. The GI50 in the assay on OVCAR-8, with NCI-H522, with 786-0, with HOP-92, in the assay on OVCAR-3 and in the assay with UACC-62 was > 100 µM (inactive) in each case.
On to `FC(F)(F)c1cccc2ns[s+]c12`, for which the GI50 was > 100 µM (inactive) in the assay with COLO 205; 69.8 µM (inactive) with SK-MEL-5; > 100 µM (inactive) with TK-10; > 100 µM (inactive) with OVCAR-5; > 100 µM (inactive) in the assay with LOX IMVI; > 100 µM (inactive) in the assay with UACC-257. The GI50 in the assay on A498, with EKVX, with IGROV-1, in the assay on CCRF-CEM, in the assay with KM-20L2 and in the assay with RXF 393 was > 100 µM (inactive) throughout. Moreover, the GI50 in the assay with OVCAR-8, in the assay on NCI-H522, in the assay on 786-0, in the assay on OVCAR-3 and with UACC-62 was > 100 µM (inactive) throughout.
On to `CCCCCCCCCCCCCCCCCCCCCCC(=O)N[C@H]1CCc2cc(OC)c(OC)c(OC)c2-c2ccc(SC)c(=O)cc21`, for which the GI50 is 26.4 µM in the assay with HCT-15; 12.8 µM (inactive) in the assay with COLO 205; 28.4 µM (inactive) with SK-MEL-5; 40.1 µM (inactive) with TK-10; > 100 µM (inactive) in the assay with OVCAR-5; 39.2 µM (inactive) in the assay with UACC-257. Also, the GI50 in the assay on A498 is 11.5 µM (inactive); with EKVX, 29.1 µM (inactive); in the assay with IGROV-1, 49.1 µM (inactive); with CCRF-CEM, 30.1 µM (inactive); in the assay with KM-20L2 it was 18.7 µM (inactive); in the assay with OVCAR-8, 26.5 µM (inactive). The GI50 in the assay with NCI-H522 is 13.4 µM (inactive); with 786-0 it was 40.2 µM (inactive); with HOP-92, 34.4 µM (inactive); in the assay with OVCAR-3, 24.2 µM (inactive); in the assay on UACC-62 it was 40 µM (inactive).
